Measurements as given in paper PMC12732608, “Synthesis and Evaluation of Novel 2-((1H-1,2,4-triazol-5-yl)thio)-N-benzylidene-N-phenylacetohydrazide as Potential Antimicrobial Agents” (International Journal of Molecular Sciences, 2025).
“Also recorded” adds a separate entry of the source.

Columns and labels:
S. aureus = test system: S. aureus; design: method as in PMID 22906969; details: comparable to ampicillin; cited from earlier work
E. coli = test system: E. coli; design: method as in PMID 22906969; details: comparable to ampicillin; cited from earlier work
[1] = MTT cytotoxicity assay on HEK cells; assay type: cell-based; details: human, HEK (human embryonic kidney) cells, compared to DMSO control, read-out: cell viability
Method: Cytotoxicity was evaluated on HEK (human embryonic kidney) cell lines using the MTT assay. […] Cells were grown in a medium that was supplemented with 10% FBS and 1% penicillin–streptomycin. This was incubated at 37 °C in a 5% CO2 atmosphere for 24 h. Cells were seeded at 1 × 10^3 cells/well in 96-well plates and allowed to adhere overnight. They were then treated with the test compounds, dissolved in DMSO, at a uniform concentration. […] The control wells contained untreated cells or cells treated with DMSO alone. After 24 h of treatment, 10 µL of the MTT solution (5 mg/mL) was added to each well and incubated for 3 h to allow formazan crystal formation. A solubilization solution (100 µL) was then added to dissolve the crystals. The absorbance at 570 nm was measured using a microplate reader. Cell viability was calculated as a percentage relative to the untreated control. All assays were performed in triplicate.

[2] = test system: Klebsiella aerogenes ATCC 13048; assay: Growth kinetics assay (OD600) against K. aerogenes; assay type: cell-based; details: 0.5 mg/mL, 6 h, K. aerogenes ATCC 13048
Method: (§1) Both Gram-positive and Gram-negative bacterial strains were employed in the experiment to assess antibacterial activities of the synthesized compounds. Gram-negative Klebsiella aerogenes ATCC 13048 and Gram-positive Enterococcus species MVBP-18 strains were used for the study. Bacterial strains of both were cultured in Luria–Bertani (LB) broth for optimal growth conditions. Bacterial cultures were sustained by culturing a fresh colony from newly streaked LB agar plates to 5 mL of LB medium and incubated at 37 °C with shaking at 200 rpm continuously for 16–18 h in order to achieve the logarithmic growth phase. Overnight cultures, after incubation, were standardized by dilution to an OD600 of 0.05, which contained equal bacterial inoculum for any experimental condition. These optimized cultures were employed for subsequent antibacterial tests, such as growth kinetics analysis, to determine the impact of the test compound on bacterial growth. A preliminary screening was conducted in a 96-well microplate format. Standardized bacterial cultures were treated with the compounds at a final concentration of 0.5 mg/mL. Control wells included untreated bacteria and a DMSO control. The plate was incubated at 37°C, with shaking at 200 rpm continuously, and bacterial growth was monitored by measuring the OD600 every hour for six hours using a microplate reader ( BioTek Synergy H1). The assay was performed in triplicate.

[3] = test system: Enterococcus species MVBP-18; assay: Growth kinetics assay (OD600) against Enterococcus sp.; assay type: cell-based; details: 0.5 mg/mL, 6 h, Enterococcus sp. MV BP 18
Method: as §1, with “The assay was performed in triplicate.” left out

K. aerogenes = assay: CFU enumeration (time-kill) against K. aerogenes; assay type: cell-based, Klebsiella aerogenes; details: for effect on viable bacterial count (CFU assay), in words: within 3 h; for terminal viable bacterial count: terminal values (3 h time course)
Method: as §1, with “[…] Bacterial” for “A preliminary screening was conducted in a 96-well microplate format. Standardized bacterial cultures were treated with the compounds at a final concentration of 0.5 mg/mL. Control wells included untreated bacteria and a DMSO control. The plate was incubated at 37°C, with shaking at 200 rpm continuously, and bacterial”, “both” for “measuring”, “readings over 4–7 h and colony-forming unit (CFU) enumeration. For CFU counting, aliquots from the wells were serially diluted, plated on LB agar, and incubated overnight at 37 °C.” for “every hour for six hours using a microplate reader ( BioTek Synergy H1).”, “resulting colonies were counted to determine the CFU/mL. All validation experiments were also conducted” for “assay was performed”

Enterococcus sp. = assay: CFU enumeration (time-kill) against Enterococcus sp.; assay type: cell-based; details: over 3 h incubation
Method: as §1, with “[…] Bacterial” for “A preliminary screening was conducted in a 96-well microplate format. Standardized bacterial cultures were treated with the compounds at a final concentration of 0.5 mg/mL. Control wells included untreated bacteria and a DMSO control. The plate was incubated at 37°C, with shaking at 200 rpm continuously, and bacterial”, “both” for “measuring”, “readings over 4–7 h and colony-forming unit (CFU) enumeration. For CFU counting, aliquots from the wells were serially diluted, plated on LB agar, and incubated overnight at 37 °C.” for “every hour for six hours using a microplate reader ( BioTek Synergy H1).”, “resulting colonies were counted to determine the CFU/mL. All validation experiments were also conducted” for “assay was performed”

[4] = design: method as in earlier work; details: comparable to ciprofloxacin; cited from earlier work

Structure (SMILES) | viability at 24 h, 0.5 mg/mL [1] [%] | growth inhibition (OD600 growth kinetics) [2] | effect on viable bacterial count (CFU assay), in words (K. aerogenes) | also measured
NNC(=O)CSc1nc(N=Cc2ccc(Br)cc2)n[nH]1 [2-{3-[4-bromobenzylidene)amino]-1H-1,2,4-triazol-5-ylthio}acetohydrazide] |  |  |  | antibacterial activity (S. aureus): strong antibacterial activity; antibacterial activity (E. coli): strong antibacterial activity
O=C(CSc1nc[nH]n1)N(/N=C/c1ccccc1)c1ccccc1 [Compound 4a, E-2-((1H-1,2,4-triazol-3-yl)thio)-N′-benzylidene-N-phenylacetohydrazide] | 72.6 |  |  | 
O=C(CSc1nc[nH]n1)N(/N=C/c1ccccc1Cl)c1ccccc1 [Compound 4b, E-2-((1H-1,2,4-triazol-3-yl)thio)-N′-(2-chlorobenzylidene)-N-phenylacetohydrazide] | 68.7 | mild inhibitory activities |  | 
O=C(CSc1nc[nH]n1)N(/N=C/c1ccc(Br)cc1)c1ccccc1 [Compound 4e, E-2-((1H-1,2,4-triazol-3-yl)thio)-N′-(4-bromobenzylidene)-N-phenylacetohydrazide] | 87.4 |  |  | 
O=C(CSc1nc[nH]n1)N(/N=C/c1ccccc1F)c1ccccc1 [Compound 4g, E-2-((1H-1,2,4-triazol-3-yl)thio)-N′-(2-fluorobenzylidene)-N-phenylacetohydrazide] | 96 | most significant growth inhibition; also recorded: highest degree of growth inhibition | reduced viable numbers by several orders of magnitude | growth inhibition (OD600 growth kinetics) [3]: most potent inhibitor; viable counts (K. aerogenes; at 2 h, maintained at 3 h): below 10^7 CFU/mL; viable bacterial counts (Enterococcus sp.): ~ 10^7 CFU/mL
O=C(CSc1nc[nH]n1)N(/N=C/c1cccc(Br)c1)c1ccccc1 [Compound 4h, E-2-((1H-1,2,4-triazol-3-yl)thio)-N′-(3-bromobenzylidene)-N-phenylacetohydrazide] | 73 | mild inhibitory activities |  | 
O=C(CSc1nc[nH]n1)N(/N=C/c1c(Cl)cccc1Cl)c1ccccc1 [Compound 4j, E-2-((1H-1,2,4-triazol-3-yl)thio)-N′-(2,6-dichlorobenzylidene)-N-phenylacetohydrazide] | 71.6 |  |  | 
COc1cc(/C=N/N(C(=O)CSc2nc[nH]n2)c2ccccc2)cc(OC)c1OC [Compound 4l, E-2-((1H-1,2,4-triazol-3-yl)thio)-N-phenyl-N′-(3,4,5-trimethoxybenzylidene)acetohydrazide] | 55.8 | mild inhibitory activities | moderate-level reduction | terminal viable bacterial count (K. aerogenes): 10^8–10^9 CFU/mL
O=C(CSc1nc[nH]n1)N(/N=C/c1cccs1)c1ccccc1 [Compound 4n, E-2-((1H-1,2,4-triazol-3-yl)thio)-N-phenyl-N′-(thiophen-2-ylmethylene)acetohydrazide] | 52.8 | most significant growth inhibition | moderate-level reduction | terminal viable bacterial count (K. aerogenes): 10^8–10^9 CFU/mL
Cc1ccc(-n2c(SCC(=O)NC3CCCCC3)nnc2-c2ccncc2)cc1 [N-Cyclohexyl-2-[5-(4-pyridyl)-4-(p-tolyl)-4H-1,2,4-triazole-3-sulfanyl]-acetamide] |  |  |  | antibacterial activity [4]: good level of inhibition
